Tests used:
Assay in all cases: biochemical
Type in all cases: binding
[1] = biological target: 468 kinases including some pathogenic mutants (Homo sapiens, UniProt O00444); settings: PLK4 (Entrez PLK4), 100 nM; read-out: Percent Control
[2] = biological target: 468 kinases including some pathogenic mutants (Homo sapiens, UniProt O15530); settings: PDPK1 (Entrez PDPK1), 100 nM; read-out: Percent Control
[3] = biological target: 468 kinases including some pathogenic mutants (Homo sapiens, UniProt O43283); settings: LZK (Entrez MAP3K13), 100 nM; read-out: Percent Control
[4] = biological target: 468 kinases including some pathogenic mutants (Homo sapiens, UniProt O43293); settings: DAPK3 (Entrez DAPK3), 100 nM; read-out: Percent Control
[5] = biological target: 468 kinases including some pathogenic mutants (Homo sapiens, UniProt O75914); settings: PAK3 (Entrez PAK3), 100 nM; read-out: Percent Control
[6] = biological target: 468 kinases including some pathogenic mutants (Homo sapiens, UniProt O94804); settings: LOK (Entrez STK10), 100 nM; read-out: Percent Control
[7] = biological target: 468 kinases including some pathogenic mutants (Homo sapiens, UniProt P00519, Y253F); settings: read-out: Percent Control
[8] = biological target: 468 kinases including some pathogenic mutants (Homo sapiens, UniProt P30291); settings: WEE1 (Entrez WEE1), 100 nM; read-out: Percent Control
[9] = biological target: 468 kinases including some pathogenic mutants (Homo sapiens, UniProt P31749); settings: AKT1 (Entrez AKT1), 100 nM; read-out: Percent Control
[10] = biological target: 468 kinases including some pathogenic mutants (Homo sapiens, UniProt P35590); settings: TIE1 (Entrez TIE1), 100 nM; read-out: Percent Control
[11] = biological target: 468 kinases including some pathogenic mutants (Homo sapiens, UniProt P42685); settings: FRK (Entrez FRK), 100 nM; read-out: Percent Control
[12] = biological target: 468 kinases including some pathogenic mutants (Homo sapiens, UniProt P54762); settings: EPHB1 (Entrez EPHB1), 100 nM; read-out: Percent Control
[13] = biological target: 468 kinases including some pathogenic mutants (Homo sapiens, UniProt P57078); settings: RIPK4 (Entrez RIPK4), 100 nM; read-out: Percent Control
[14] = biological target: 468 kinases including some pathogenic mutants (Homo sapiens, UniProt Q04771); settings: ACVR1 (Entrez ACVR1), 100 nM; read-out: Percent Control
[15] = biological target: 468 kinases including some pathogenic mutants (Homo sapiens, UniProt Q06418); settings: TYRO3 (Entrez TYRO3), 100 nM; read-out: Percent Control
[16] = biological target: 468 kinases including some pathogenic mutants (Homo sapiens, UniProt Q12852); settings: DLK (Entrez MAP3K12), 100 nM; read-out: Percent Control
[17] = biological target: 468 kinases including some pathogenic mutants (Homo sapiens, UniProt Q13233); settings: MAP3K1 (Entrez MAP3K1), 1000 nM; read-out: Percent Control
[18] = biological target: 468 kinases including some pathogenic mutants (Homo sapiens, UniProt Q13464); settings: ROCK1 (Entrez ROCK1), 100 nM; read-out: Percent Control
[19] = biological target: 468 kinases including some pathogenic mutants (Homo sapiens, UniProt Q14680); settings: MELK (Entrez MELK), 1000 nM; read-out: Percent Control
[20] = biological target: 468 kinases including some pathogenic mutants (Homo sapiens, UniProt Q6P2M8); settings: CAMK1B (Entrez PNCK), 100 nM; read-out: Percent Control
[21] = biological target: 468 kinases including some pathogenic mutants (Homo sapiens, UniProt Q9BXA7); settings: TSSK1B (Entrez TSSK1B), 100 nM; read-out: Percent Control
[22] = biological target: 468 kinases including some pathogenic mutants (Homo sapiens, UniProt Q9BYT3); settings: STK33 (Entrez STK33), 1000 nM; read-out: Percent Control
[23] = biological target: 468 kinases including some pathogenic mutants (Homo sapiens, UniProt Q9BZL6); settings: PRKD2 (Entrez PRKD2), 100 nM; read-out: Percent Control
[24] = biological target: 468 kinases including some pathogenic mutants (Homo sapiens, UniProt Q9H422); settings: HIPK3 (Entrez HIPK3), 100 nM; read-out: Percent Control
[25] = biological target: 468 kinases including some pathogenic mutants (Homo sapiens, UniProt Q9HBH9); settings: MKNK2 (Entrez MKNK2), 1000 nM; read-out: Percent Control
[26] = biological target: 468 kinases including some pathogenic mutants (Homo sapiens, UniProt Q9P1W9); settings: PIM2 (Entrez PIM2), 100 nM; read-out: Percent Control
[27] = biological target: 468 kinases including some pathogenic mutants (Homo sapiens, UniProt Q9P289); settings: MST4 (Entrez MST4), 100 nM; read-out: Percent Control
[28] = biological target: 468 kinases including some pathogenic mutants (Homo sapiens, UniProt Q9UQB9); settings: AURKC (Entrez AURKC), 100 nM; read-out: Percent Control

468 kinases including some pathogenic mutants (Homo sapiens, UniProt Q13233), sequence (Q13233 whole entry, change not shown): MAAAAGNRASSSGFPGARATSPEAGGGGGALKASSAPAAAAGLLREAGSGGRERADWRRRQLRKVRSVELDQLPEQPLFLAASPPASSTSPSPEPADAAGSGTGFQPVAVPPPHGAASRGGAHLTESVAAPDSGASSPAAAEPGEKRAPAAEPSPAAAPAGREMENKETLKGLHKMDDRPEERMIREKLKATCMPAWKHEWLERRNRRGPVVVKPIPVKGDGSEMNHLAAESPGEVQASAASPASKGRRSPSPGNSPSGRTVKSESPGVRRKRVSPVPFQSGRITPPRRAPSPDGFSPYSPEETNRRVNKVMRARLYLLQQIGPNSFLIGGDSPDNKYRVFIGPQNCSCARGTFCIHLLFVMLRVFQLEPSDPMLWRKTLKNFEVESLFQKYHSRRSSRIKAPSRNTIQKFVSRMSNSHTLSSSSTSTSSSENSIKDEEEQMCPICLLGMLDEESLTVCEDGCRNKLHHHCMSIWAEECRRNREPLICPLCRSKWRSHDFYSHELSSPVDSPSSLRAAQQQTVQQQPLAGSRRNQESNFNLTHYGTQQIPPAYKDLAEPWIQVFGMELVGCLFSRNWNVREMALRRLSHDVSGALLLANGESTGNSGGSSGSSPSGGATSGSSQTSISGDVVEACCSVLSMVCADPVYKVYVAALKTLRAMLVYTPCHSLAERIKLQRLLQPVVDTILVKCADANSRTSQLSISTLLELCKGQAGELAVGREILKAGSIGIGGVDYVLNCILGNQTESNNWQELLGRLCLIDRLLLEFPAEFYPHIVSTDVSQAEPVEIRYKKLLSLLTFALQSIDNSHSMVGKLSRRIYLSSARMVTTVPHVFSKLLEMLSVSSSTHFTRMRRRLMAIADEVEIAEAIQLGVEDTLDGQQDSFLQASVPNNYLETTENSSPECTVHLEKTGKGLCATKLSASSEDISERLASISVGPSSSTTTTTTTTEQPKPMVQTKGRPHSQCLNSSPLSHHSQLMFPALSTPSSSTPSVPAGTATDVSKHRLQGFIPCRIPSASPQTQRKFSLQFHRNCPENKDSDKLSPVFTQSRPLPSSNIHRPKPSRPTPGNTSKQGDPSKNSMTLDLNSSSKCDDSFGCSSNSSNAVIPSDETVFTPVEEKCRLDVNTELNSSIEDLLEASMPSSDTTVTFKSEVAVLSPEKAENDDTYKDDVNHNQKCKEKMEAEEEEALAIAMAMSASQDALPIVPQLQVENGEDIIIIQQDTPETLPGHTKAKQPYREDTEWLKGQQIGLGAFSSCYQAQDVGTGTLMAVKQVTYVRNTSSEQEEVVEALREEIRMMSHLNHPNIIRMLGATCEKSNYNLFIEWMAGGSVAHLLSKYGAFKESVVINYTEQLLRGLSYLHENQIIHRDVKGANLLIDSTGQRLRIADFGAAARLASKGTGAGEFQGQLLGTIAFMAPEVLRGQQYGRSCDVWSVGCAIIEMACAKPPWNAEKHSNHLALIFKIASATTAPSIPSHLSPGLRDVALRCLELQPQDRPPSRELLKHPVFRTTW
468 kinases including some pathogenic mutants (Homo sapiens, UniProt O15530), sequence (O15530 whole entry, change not shown): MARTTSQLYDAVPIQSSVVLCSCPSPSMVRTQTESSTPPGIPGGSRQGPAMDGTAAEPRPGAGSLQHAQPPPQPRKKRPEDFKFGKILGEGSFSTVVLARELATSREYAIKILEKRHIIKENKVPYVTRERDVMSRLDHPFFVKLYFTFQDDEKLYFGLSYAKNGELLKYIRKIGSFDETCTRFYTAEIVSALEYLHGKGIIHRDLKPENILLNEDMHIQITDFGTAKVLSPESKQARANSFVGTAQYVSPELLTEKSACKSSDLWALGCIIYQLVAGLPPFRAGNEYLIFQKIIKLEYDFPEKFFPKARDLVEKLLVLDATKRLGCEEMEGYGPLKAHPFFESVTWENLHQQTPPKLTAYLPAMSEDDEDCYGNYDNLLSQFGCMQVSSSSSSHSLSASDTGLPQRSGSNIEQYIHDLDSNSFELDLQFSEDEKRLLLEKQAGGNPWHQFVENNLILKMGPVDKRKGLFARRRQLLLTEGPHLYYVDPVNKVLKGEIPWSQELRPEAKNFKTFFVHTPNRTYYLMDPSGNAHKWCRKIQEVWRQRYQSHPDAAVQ
468 kinases including some pathogenic mutants (Homo sapiens, UniProt P57078), sequence (P57078 whole entry, change not shown): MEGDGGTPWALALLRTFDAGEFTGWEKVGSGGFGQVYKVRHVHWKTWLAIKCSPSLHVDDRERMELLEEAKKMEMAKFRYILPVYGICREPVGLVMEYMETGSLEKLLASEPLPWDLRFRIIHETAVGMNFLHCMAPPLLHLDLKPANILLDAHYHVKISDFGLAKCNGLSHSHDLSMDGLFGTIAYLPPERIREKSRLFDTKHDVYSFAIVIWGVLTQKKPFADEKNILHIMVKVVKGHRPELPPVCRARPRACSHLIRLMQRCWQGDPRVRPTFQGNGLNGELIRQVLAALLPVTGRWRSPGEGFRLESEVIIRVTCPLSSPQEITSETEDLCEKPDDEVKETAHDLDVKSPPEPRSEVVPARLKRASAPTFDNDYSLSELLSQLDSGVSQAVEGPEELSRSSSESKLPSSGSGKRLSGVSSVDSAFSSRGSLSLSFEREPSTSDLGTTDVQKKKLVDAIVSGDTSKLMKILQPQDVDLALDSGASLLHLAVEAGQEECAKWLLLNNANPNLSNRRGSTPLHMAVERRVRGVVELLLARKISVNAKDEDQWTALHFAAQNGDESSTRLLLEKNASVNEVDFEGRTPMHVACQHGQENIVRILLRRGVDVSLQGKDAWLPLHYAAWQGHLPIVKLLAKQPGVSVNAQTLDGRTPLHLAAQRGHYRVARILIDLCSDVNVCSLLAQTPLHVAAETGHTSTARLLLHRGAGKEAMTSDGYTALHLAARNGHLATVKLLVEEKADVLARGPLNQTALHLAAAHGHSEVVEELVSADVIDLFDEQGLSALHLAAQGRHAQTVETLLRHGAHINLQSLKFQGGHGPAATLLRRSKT
468 kinases including some pathogenic mutants (Homo sapiens, UniProt P30291), sequence (P30291 whole entry, change not shown): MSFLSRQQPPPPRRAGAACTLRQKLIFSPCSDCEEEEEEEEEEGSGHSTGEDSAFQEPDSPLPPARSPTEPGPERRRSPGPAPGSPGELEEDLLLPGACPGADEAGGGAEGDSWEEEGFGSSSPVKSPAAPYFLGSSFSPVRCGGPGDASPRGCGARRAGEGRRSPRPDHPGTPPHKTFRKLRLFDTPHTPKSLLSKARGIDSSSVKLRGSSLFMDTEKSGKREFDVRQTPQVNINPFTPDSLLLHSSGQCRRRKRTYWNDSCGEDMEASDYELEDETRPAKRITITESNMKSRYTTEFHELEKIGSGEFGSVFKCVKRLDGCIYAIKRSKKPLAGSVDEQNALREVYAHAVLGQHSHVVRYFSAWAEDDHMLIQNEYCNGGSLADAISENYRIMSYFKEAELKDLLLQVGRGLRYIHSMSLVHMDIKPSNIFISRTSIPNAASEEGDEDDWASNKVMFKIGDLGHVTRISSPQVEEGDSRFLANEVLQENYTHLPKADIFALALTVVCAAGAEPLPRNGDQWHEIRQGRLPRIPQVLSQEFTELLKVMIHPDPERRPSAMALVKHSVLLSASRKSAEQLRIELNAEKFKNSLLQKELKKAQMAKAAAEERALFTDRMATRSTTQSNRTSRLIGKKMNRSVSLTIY
468 kinases including some pathogenic mutants (Homo sapiens, UniProt Q6P2M8), sequence (Q6P2M8 whole entry, change not shown): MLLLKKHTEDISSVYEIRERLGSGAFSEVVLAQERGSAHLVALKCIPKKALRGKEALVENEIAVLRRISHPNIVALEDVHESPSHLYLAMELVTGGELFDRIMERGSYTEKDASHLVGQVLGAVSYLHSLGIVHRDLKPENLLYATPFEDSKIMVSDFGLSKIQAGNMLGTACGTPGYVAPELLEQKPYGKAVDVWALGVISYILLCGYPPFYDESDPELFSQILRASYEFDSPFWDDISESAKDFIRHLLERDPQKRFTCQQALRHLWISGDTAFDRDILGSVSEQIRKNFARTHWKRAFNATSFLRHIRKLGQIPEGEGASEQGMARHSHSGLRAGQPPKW
468 kinases including some pathogenic mutants (Homo sapiens, UniProt P42685), sequence (P42685 whole entry, change not shown): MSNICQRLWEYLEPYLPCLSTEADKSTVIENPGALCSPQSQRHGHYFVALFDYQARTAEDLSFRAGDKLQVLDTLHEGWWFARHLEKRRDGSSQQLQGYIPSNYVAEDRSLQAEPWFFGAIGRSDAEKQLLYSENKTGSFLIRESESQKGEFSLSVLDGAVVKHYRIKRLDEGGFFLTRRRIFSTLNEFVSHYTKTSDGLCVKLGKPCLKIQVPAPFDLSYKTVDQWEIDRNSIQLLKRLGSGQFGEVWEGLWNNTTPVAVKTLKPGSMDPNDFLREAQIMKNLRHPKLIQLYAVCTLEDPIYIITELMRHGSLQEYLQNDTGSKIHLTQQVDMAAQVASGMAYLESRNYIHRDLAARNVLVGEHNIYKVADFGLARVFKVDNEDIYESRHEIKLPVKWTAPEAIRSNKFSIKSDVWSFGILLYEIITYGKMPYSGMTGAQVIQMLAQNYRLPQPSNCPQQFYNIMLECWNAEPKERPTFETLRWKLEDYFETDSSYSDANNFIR
468 kinases including some pathogenic mutants (Homo sapiens, UniProt Q9BXA7), sequence (Q9BXA7 whole entry, change not shown): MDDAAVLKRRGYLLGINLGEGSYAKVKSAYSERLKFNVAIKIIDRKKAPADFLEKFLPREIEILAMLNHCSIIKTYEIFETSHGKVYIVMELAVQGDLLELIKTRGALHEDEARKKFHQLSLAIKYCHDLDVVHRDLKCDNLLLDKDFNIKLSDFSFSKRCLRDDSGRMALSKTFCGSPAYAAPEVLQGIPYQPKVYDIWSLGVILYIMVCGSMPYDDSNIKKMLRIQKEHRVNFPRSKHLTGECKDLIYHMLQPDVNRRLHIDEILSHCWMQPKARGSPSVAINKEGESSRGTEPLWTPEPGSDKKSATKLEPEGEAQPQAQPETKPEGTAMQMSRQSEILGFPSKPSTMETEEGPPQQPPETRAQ

SMILES: CN1C(=O)[C@@H](N2CCc3c(nn(Cc4ccccc4)c3C(N)=O)C2=O)COc2cc(Cl)ccc21 [Compound 10, (S)-2-benzyl-6-(8-chloro-5-methyl-4-oxo-2,3,4,5-tetrahydrobenzo[b][1,4]oxazepin-3-yl)-7-oxo-4,5,6,7-tetrahydro-2H-pyrazolo[3,4-c]pyridine-3-carboxamide]
- remaining activity at 0.1 µM [1]: 58%
- remaining activity at 0.1 µM [2]: 100%
- remaining activity at 0.1 µM [3]: 100%
- remaining activity at 0.1 µM [4]: 79%
- remaining activity at 0.1 µM [5]: 53%
- remaining activity at 0.1 µM [6]: 57%
- remaining activity at 0.1 µM [7]: 76%
- remaining activity at 0.1 µM [8]: 92%
- remaining activity at 0.1 µM [9]: 87%
- remaining activity at 0.1 µM [10]: 68%
- remaining activity at 0.1 µM [11]: 75%
- remaining activity at 0.1 µM [12]: 95%
- remaining activity at 0.1 µM [13]: 96%
- remaining activity at 0.1 µM [14]: 88%
- remaining activity at 0.1 µM [15]: 100%
- remaining activity at 0.1 µM [16]: 72%
- remaining activity at 1 µM [17]: 100%
- remaining activity at 0.1 µM [18]: 76%
- remaining activity at 1 µM [19]: 100%
- remaining activity at 0.1 µM [20]: 79%
- remaining activity at 0.1 µM [21]: 83%
- remaining activity at 1 µM [22]: 100%
- remaining activity at 0.1 µM [23]: 84%
- remaining activity at 0.1 µM [24]: 77%
- remaining activity at 1 µM [25]: 100%
- remaining activity at 0.1 µM [26]: 83%
- remaining activity at 0.1 µM [27]: 77%
- remaining activity at 0.1 µM [28]: 67%

From PMC12090182, “Repurposing of the RIPK1-Selective Benzo[1,4]oxazepin-4-one Scaffold for the Development of a Type III LIMK1/2 Inhibitor” (ACS Chemical Biology, 2025)
